# Source: patent US20180085333A1, “4-PHENYLBUTYRIC ACID DERIVATIVES” (priority 2015, published 2018)
# Experiments:
# Set-up in all cases: species or system human
# ulcerative colitis = test: In vivo activity of 4-PB against ulcerative colitis (patient case)
# [1] = system: primary sclerosing cholangitis; test: In vivo activity of 4-PB against primary sclerosing cholangitis (patient cases); settings: two female patients chosen for liver transplant, after 5 months of treatment
# Protocol: Two female patients with primary sclerosing cholangitis were treated with 4-PB. Both had recurrent fever and abdominal pains for days. Both were chosen for liver transplant.
# psoriasis = test: In vivo activity of 4-PB against psoriasis (patient case); settings: received 4-PB for colon carcinoma, after four months of treatment, lasting after sessions of 4-PB
# From the text: A patient with generalized psoriasis, who has been treated for years with corticoids ointments, received 4-PB for a colon carcinoma.
# [2] = system: recurrent vulvo-vaginitis; test: In vivo activity of 4-PB against recurrent vulvo-vaginitis (patient cases); settings: two female patients
# Protocol: Two female patients were treated with 4-PB for other reasons (one for cancer and one for depressions).
# varicose veins = test: In vivo activity of 4-PB against varicose veins (patient case)
# Protocol: A patient with breast cancer was treated with 4-PB.
# [3] = system: major depressive disorder; test: In vivo activity of 4-PB against major depressive disorder (patient cases)
# Protocol: Four female patients and one patient with major depressive disorders, some of which suffering from other diseases, were treated with 4-PB.
# tinnitus = test: In vivo activity of 4-PB against tinnitus (patient cases); settings: two male patients with tinnitus lasting more than ten years, after four months of treatment
# Protocol: Two male patients with tinnitus, lasting for more than ten years, were treated with 4-PB.
compound,measurement,setting,value
"C[C@@H](NC(=O)CCCc1ccccc1)C(=O)O [4-PB, N-(4-phenylbutanoyl)-D-alanine]",response of ulcerative colitis to 4-PB,ulcerative colitis; patient with recurrent episodes of ulcerative colitis,good response
same,"bowel state and symptoms (pain, diarrhea)","ulcerative colitis; patient, after 6 months of treatment",bowels were normal and they had no pain and no diarrhea anymore
same,symptoms and signs of cholangitis,[1],both were free of symptoms and signs of the underlying cholangitis
same,remission of generalized psoriasis,psoriasis,complete remission
same,presence of vulvo-vaginitis,[2]; after four months of treatment,both were free of vulvo-vaginitis
same,remission of vulvo-vaginitis after sessions of 4-PB,[2]; even after sessions of 4-PB,complete remission
same,spider veins on both legs,varicose veins; patient with breast cancer treated with 4-PB,remained unchanged
same,enlarged (varicose) veins on both legs,"varicose veins; patient with breast cancer, during therapy with 4-PB",disappearance of the enlarged veins on both legs
same,recurrence of enlarged veins,"varicose veins; patient, in the next 10 years",without a recurrence
same,depressions,[3]; four female patients and one patient with major depressive disorders,depressions disappeared in three to five months
same,recurrence of depression,"[3]; four female patients and one patient, after disappearance of depressions",No recurrences have been observed
same,tinnitus,tinnitus,tinnitus has disappeared in both cases
